For orientation: IC50 means the concentration at which inhibition is half-maximal. Low readings indicate higher potency, high ones lower potency.

Structures can show the parent of a compound that is named as a salt. Bounds are passed on as bounds.

The target of this experiment is T1, human LOXL2 (Homo sapiens, UniProt Q9Y4K0).
T1 construct: expressed in transfected cells; secreted protein in 10-20x concentrated conditioned media
T1 sequence (Q9Y4K0 26-774): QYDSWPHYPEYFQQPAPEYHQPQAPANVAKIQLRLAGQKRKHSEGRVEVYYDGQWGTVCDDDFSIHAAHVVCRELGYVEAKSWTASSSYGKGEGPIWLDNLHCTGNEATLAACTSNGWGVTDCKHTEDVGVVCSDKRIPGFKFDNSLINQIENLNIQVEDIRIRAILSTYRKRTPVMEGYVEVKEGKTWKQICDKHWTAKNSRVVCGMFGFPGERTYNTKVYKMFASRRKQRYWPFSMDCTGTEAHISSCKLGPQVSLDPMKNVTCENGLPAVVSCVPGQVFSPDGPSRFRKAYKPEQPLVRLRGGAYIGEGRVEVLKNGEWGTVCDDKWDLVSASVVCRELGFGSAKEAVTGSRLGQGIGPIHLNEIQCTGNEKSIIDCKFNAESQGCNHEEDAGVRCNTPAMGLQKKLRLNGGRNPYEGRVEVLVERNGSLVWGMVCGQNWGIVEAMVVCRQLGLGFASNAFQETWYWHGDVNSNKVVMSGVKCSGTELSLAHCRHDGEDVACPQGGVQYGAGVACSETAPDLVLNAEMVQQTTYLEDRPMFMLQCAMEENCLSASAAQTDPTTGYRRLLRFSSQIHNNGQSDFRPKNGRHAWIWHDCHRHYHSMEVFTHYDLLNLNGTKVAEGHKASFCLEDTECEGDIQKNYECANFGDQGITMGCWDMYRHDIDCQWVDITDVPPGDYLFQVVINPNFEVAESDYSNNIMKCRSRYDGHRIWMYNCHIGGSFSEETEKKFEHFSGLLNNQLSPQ
Briefly: Human LOXL2 Amine Oxidase Activity Assay (Amplex Red fluorescence). The class given is biochemical. Conditions: concentrated conditioned media from CHO cells stably expressing human LOXL2, test compound incubated 2 h at 37° C., pH8, DAP substrate. As for the experimental part:
Example B-1: Human LOXL2 Amine Oxidase Activity Assay
LOXL2 amine oxidase activity is evaluated by measuring Amplex Red fluorescence using 10-20× concentrated conditioned media from CHO cells stably expressing human LOXL2. To assay for amine oxidase activity, 10 μL of the concentrated conditioned media is incubated with 2 μL of test compound in DMSO and 73 μL Assay Buffer (50 mM Borate Buffer, pH8) for 2 h at 37° C. After the 2 h incubation, 5 μl of 10 mM 1,5-Diaminopentane (DAP) diluted in Assay Buffer and 10 μl of Amplex Red Mix (8.5 μl Assay Buffer+0.5 μl of 10 mM Amplex Red+1 μl of 500 U/ml Horseradish Peroxidase) are added and the plate mixed and immediately placed on the FlexStaion for fluorescence measurements. Fluorescence is read in kinetic mode every 2 min for 1 hour at excitation=544 and emission=590. The amine oxidase activity is calculated from the slope of the linear portion of the curve.
`NCc1cc(=O)c2ccc(N3CCN(c4ccccc4)CC3)cc2o1` [Compound 1-40, 2-(Aminomethyl)-7-(4-phenylpiperazin-1-yl)-4H-chromen-4-one hydrochloride] came in with a 50% inhibitory concentration (IC50) of under 300 nM.
Then `NCc1cc(=O)c2ccc(N3CCN(C(=O)c4ccccc4)CC3)cc2o1` [Compound 1-41, 2-(Aminomethyl)-7-(4-benzoylpiperazin-1-yl)-4H-chromen-4-one hydrochloride], with under 300 nM; and `NCc1cc(=O)c2cc(C(=O)N3C[C@H](O)[C@@H](F)C3)ccc2o1` [Compound 1-60, 2-(Aminomethyl)-6-((3S,4S)-3-fluoro-4-hydroxypyrrolidine-1-carbonyl)-4H-chromen-4-one hydrochloride], with 300 to 1000 nM.
Compound `NCc1cc(=O)c2cc(C(=O)N3C[C@@H](O)[C@H](F)C3)ccc2o1` (racemic) [Compound 1-25, Racemic-trans-2-(aminomethyl)-6-(3-fluoro-4-hydroxypyrrolidine-1-carbonyl)-4H-chromen-4-one hydrochloride] displayed an IC50 of 300 to 1000 nM.
`NCc1cc(=O)c2cccc(OCc3cccc(C(=O)Nc4ccccc4)c3)c2o1` [Compound 1-58, 3-(((2-(Aminomethyl)-4-oxo-4H-chromen-8-yl)oxy)methyl)-N-phenylbenzamide hydrochloride]: the concentration for half-maximal inhibition (IC50) is over 1000 nM.
As for `NCc1cc(=O)c2cc(-c3cn(Cc4ccccc4)nn3)ccc2o1` [Compound 1-15, 2-(Aminomethyl)-6-(1-benzyl-1H-1,2,3-triazol-4-yl)-4H-chromen-4-one hydrochloride], the 50% inhibitory concentration (IC50) was under 300 nM.
Regarding `COC(=O)[C@@H]1CCN(C(=O)c2ccc3oc(CN)cc(=O)c3c2)C1` [Compound 1-24, Methyl (R)-1-(2-(aminomethyl)-4-oxo-4H-chromene-6-carbonyl)pyrrolidine-3-carboxylate hydrochloride], the half-inhibitory concentration (IC50) was 300 to 1000 nM.
With `NCc1cc(=O)c2ccc(Oc3cccc(C(F)(F)F)c3)cc2o1` [Compound 1-67, 2-(Aminomethyl)-7-(3-(trifluoromethyl)phenoxy)-4H-chromen-4-one hydrochloride], the IC50 is under 300 nM.
Then `NCc1cc(=O)c2ccc(Nc3cccc(C(=O)Nc4ccccc4)c3)cc2o1` [Compound 1-49, 3-((2-(Aminomethyl)-4-oxo-4H-chromen-7-yl)amino)-N-phenylbenzamide hydrochloride], with under 300 nM.
The compound `NCc1cc(=O)c2ccc(-c3cn(-c4ccccc4)nn3)cc2o1` [Compound 1-33, 2-(Aminomethyl)-7-(1-phenyl-1H-1,2,3-triazol-4-yl)-4H-chromen-4-one hydrochloride] displayed an IC50 of under 300 nM.
For `NCc1cc(=O)c2cc(N3CC[C@H](O)C3)ccc2o1` [Compound 1-20, (S)-2-(Aminomethyl)-6-(3-hydroxypyrrolidin-1-yl)-4H-chromen-4-one hydrochloride] the value was 300 to 1000 nM.
Then `C#Cc1ccc2oc(CN)cc(=O)c2c1` [Compound 1-3, 2-(Aminomethyl)-6-ethynyl-4H-chromen-4-one hydrochloride], with under 300 nM.
For `COC(=O)[C@H]1CCN(C(=O)c2ccc3oc(CN)cc(=O)c3c2)C1` [Compound 1-36, Methyl (S)-1-(2-(aminomethyl)-4-oxo-4H-chromene-6-carbonyl)pyrrolidine-3-carboxylate hydrochloride] the value was over 1000 nM; for `NCc1cc(=O)c2ccc(OCCOc3ccccc3)cc2o1` [Compound 1-46, 2-(Aminomethyl)-7-(2-phenoxyethoxy)-4H-chromen-4-one hydrochloride], under 300 nM; for `COc1ccc2c(=O)cc(CN)oc2c1` [Compound 1-28, 2-(Aminomethyl)-7-methoxy-4H-chromen-4-one hydrochloride], under 300 nM.
Compound `NCc1cc(=O)c2cc(-n3cccn3)ccc2o1` [Compound 1-10, 2-(Aminomethyl)-6-(1H-pyrazol-1-yl)-4H-chromen-4-one hydrochloride] returned a half-maximal inhibitory concentration (IC50) of under 300 nM.
The compound `CN(C)C(=O)Cn1cc(-c2ccc3oc(CN)cc(=O)c3c2)nn1` [Compound 1-17, 2-(4-(2-(Aminomethyl)-4-oxo-4H-chromen-6-yl)-1H-1,2,3-triazol-1-yl)-N,N-dimethylacetamide hydrochloride] showed a 50% inhibitory concentration (IC50) of under 300 nM.
In turn, `NCc1cc(=O)c2cc(C(=O)N3CC[C@@H](N)C3)ccc2o1` [Compound 1-23, (R)-2-(Aminomethyl)-6-(3-aminopyrrolidine-1-carbonyl)-4H-chromen-4-one dihydrochloride] had an IC50 of 300 to 1000 nM.
`NCc1cc(=O)c2cc(C(=O)NCCS(N)(=O)=O)ccc2o1` [Compound 1-22, 2-(Aminomethyl)-4-oxo-N-(2-sulfamoylethyl)-4H-chromene-6-carboxamide hydrochloride] had an IC50 of 300 to 1000 nM.
For the compound `NCc1cc(=O)c2cccc(OCCc3ccccc3)c2o1` [Compound 1-55, 2-(Aminomethyl)-8-phenethoxy-4H-chromen-4-one hydrochloride], the IC50 is 300 to 1000 nM.
With `NCc1cc(=O)c2ccc(O)cc2o1` [Compound 1-43, 2-(Aminomethyl)-7-hydroxy-4H-chromen-4-one hydrochloride], the IC50 was 300 to 1000 nM.
For `CC(C)COc1ccc2c(=O)cc(CN)oc2c1` [Compound 1-44, 2-(Aminomethyl)-7-isobutoxy-4H-chromen-4-one hydrochloride] the value was under 300 nM; for `NCc1cc(=O)c2ccc(OCc3cc4ccccc4s3)cc2o1` [Compound 1-66, 2-(Aminomethyl)-7-(benzo[b]thiophen-2-ylmethoxy)-4H-chromen-4-one hydrochloride], under 300 nM; for `NCc1cc(=O)c2ccc(OCc3ccc(C(F)(F)F)cc3)cc2o1` [Compound 1-62, 2-(Aminomethyl)-7-((4-(trifluoromethyl)benzyl)oxy)-4H-chromen-4-one hydrochloride], under 300 nM.
For `NCc1cc(=O)c2cccc(OCc3ccccc3)c2o1` [Compound 1-54, 2-(Aminomethyl)-8-(benzyloxy)-4H-chromen-4-one hydrochloride] the value was 300 to 1000 nM; for `NCc1cc(=O)c2cc(C(=O)N3CCC(C(=O)O)C3)ccc2o1` (single isomer, unassigned) [Compound 1-38, (R) or (S)-1-(2-(Aminomethyl)-4-oxo-4H-chromene-6-carbonyl)pyrrolidine-3-carboxylic Acid hydrochloride], over 1000 nM; for `NCc1cc(=O)c2cccc(Br)c2o1` [Compound 1-50, 2-(Aminomethyl)-8-bromo-4H-chromen-4-one hydrochloride], 300 to 1000 nM.
Compound `NCc1cc(=O)c2ccc(OCC#Cc3ccccc3)cc2o1` [Compound 1-63, 2-(Aminomethyl)-7-((3-phenylprop-2-yn-1-yl)oxy)-4H-chromen-4-one hydrochloride] came in with an IC50 of under 300 nM.
For `NCc1cc(=O)c2cccc(O)c2o1` [Compound 1-52, 2-(Aminomethyl)-8-hydroxy-4H-chromen-4-one hydrochloride] the value was 300 to 1000 nM; for `NCc1cc(=O)c2cc(Br)ccc2o1` [Compound 1-1, 2-(Aminomethyl)-6-bromo-4H-chromen-4-one hydrochloride], under 300 nM; for `COc1ccc(COc2ccc3c(=O)cc(CN)oc3c2)cc1` [Compound 1-64, 2-(Aminomethyl)-7-((4-methoxybenzyl)oxy)-4H-chromen-4-one], under 300 nM.
In the case of `COc1cc2c(=O)cc(CN)oc2cc1OCc1ccccc1` [Compound 1-69, 2-(Aminomethyl)-7-(benzyloxy)-6-methoxy-4H-chromen-4-one hydrochloride], the IC50 was under 300 nM.
`NCc1cc(=O)c2cc(-c3ccccn3)ccc2o1` [Compound 1-7, 2-(Aminomethyl)-6-(pyridin-2-yl)-4H-chromen-4-one hydrochloride]: the IC50 is under 300 nM.
The compound `Cn1cc(-c2ccc3oc(CN)cc(=O)c3c2)nn1` [Compound 1-13, 2-(Aminomethyl)-6-(1-methyl-1H-1,2,3-triazol-4-yl)-4H-chromen-4-one hydrochloride] had an IC50 of under 300 nM.

Source of the values: patent publication US20180215727A1, “LYSYL OXIDASE-LIKE 2 INHIBITORS AND USES THEREOF” (PharmAkea, Inc., priority 2015, published 2018).
